The values that follow are results of earlier work, collected in patent US20110159118A1, “Screening Method (Metabolite Grid) for Therapeutic Extracts and Molecules for Diabetes” (priority 2000, published 2011).

In data set [1] the test system is streptozotocin-diabetic mice. As to conditions: doses of 3.4-13.4 mg/kg, 6 h after the administration.
The next data set concerns hyperglycemic rats. As to conditions: effect comparable to metformin.

For `Oc1cc(O)c2c(c1)O[C@H](c1ccc(O)c(O)c1)[C@H](O)C2` [(−)-Epicatechin, (−)-epicatechin], in the data set with alloxan diabetic rats (30 mg/kg, i.p., twice daily for 3 days, begun 92 hr after alloxan), the “blood glucose levels, control versus treated rats” value was “no significant difference”. In addition, the hyperglycemia result in the data set on alloxan diabetic rats (given before or within 24 hr after the dose of alloxan) is reported as “reverse hyperglycemia”.
Regarding gymnemic acid IV [Gymnemic acids], the “reduced the blood glucose levels” value in data set [1] is recorded as 13.5-60.0%.
For `COc1cc(O)cc2c1C(=O)C(O)(Cc1ccc(O)cc1)O2` (stereo not shown) [Marsupsin, marsupsin], the blood glucose level result in the data set on hyperglycemic rats was “significantly lowered”.
